Key:
[1] = log P by HPLC on reversed-phase column (C18), EEC Directive 79/831 Annex V.A8; assay type: physicochemical; conditions: for chromatographic logP: reversed-phase HPLC column (C18)
Procedure, shortened: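 Retention time on C18 reversed-phase HPLC at 40 °C, gradient 10% to 95% acetonitrile with either 0.1% aqueous formic acid (Method A) or 0.001 molar ammonium acetate (Method B). Calibrated with unbranched alkan-2-ones (C3–C16) of known log P by linear interpolation between successive alkanones.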

Pyricularia oryzae = assay: microbe, parasite or virus in culture; assay type: cell-based; conditions: for Efficacy: inhibition of fungal growth, liquid culture; for inhibition at 20 ppm: Pyricularia oryzae, 120 h, read-out: efficacy (inhibition of fungal growth)
Botrytis cinerea = assay: Example B: in vivo preventive test on Botrytis cinerea (grey mould); conditions: evaluated 4 to 5 days after inoculation
Procedure: Example B: In Vivo Preventive Test on Botrytis cinerea (Grey Mould)
(§1) • Solvent: 5% by volume of dimethyl sulfoxide • 10% by volume of acetone • Emulsifier: 1 μL of Tween® 80 per mg of active ingredient
The tested compounds were made soluble and homogenized in a mixture of dimethyl sulfoxide/acetone//Tween® 80 and then diluted in water to the desired concentration.
The young plants of gherkin were treated by spraying the tested compounds prepared as described above. Control plants were treated only with an aqueous solution of acetone/dimethyl sulfoxide/Tween® 80.
After 24 hours, the plants were contaminated by spraying the leaves with an aqueous suspension of Botrytis cinerea spores. The contaminated gherkin plants were incubated for 4 to 5 days at 17° C. and at 90% relative humidity.
The test was evaluated 4 to 5 days after the inoculation. 0% means an efficacy which corresponds to that of the control plants while an efficacy of 100% means that no disease is observed.

Septoria tritici = assay: Example D: in vivo preventive test on Septoria tritici (leaf spot on wheat)
Procedure: Example D: In Vivo Preventive Test on Septoria tritici (Leaf Spot on Wheat)
as §1
The active compounds were made soluble and homogenized in a mixture of dimethyl sulfoxide/acetone//Tween® 80 and then diluted in water to the desired concentration.
The young plants of wheat were treated by spraying the active compound prepared as described above. Control plants were treated only with an aqueous solution of acetone/dimethyl sulfoxide/Tween® 80.
After 24 hours, the plants were contaminated by spraying the leaves with an aqueous suspension of Septoria tritici spores. The contaminated wheat plants were incubated for 72 hours at 18° C. and at 100% relative humidity and then for 21 days at 20° C. and at 90% relative humidity.
The test was evaluated 24 days after the inoculation. 0% means an efficacy which corresponds to that of the control plants while an efficacy of 100% means that no disease is observed.

[2] = Method B: 40° C., 0.001 molar ammonium acetate solution in water and acetonitrile
[3] = dose 500 ppm, preventive spray on gherkin plants
[4] = Method A: 40° C., 0.1% aqueous formic acid and acetonitrile
[5] = 4 ppm of active ingredient, 5 days incubation
[6] = 500 ppm of active ingredient, gherkin plants, preventive
[7] = dose 0.06 ppm, 5 days incubation
[8] = dose 0.25 ppm, 5 days incubation

SMILES: Cc1nc2c(F)c(F)ccc2cc1Oc1cccc(F)c1[Si](C)(C)C [I.027]
- logP [1, 2]: 5.54
- Efficacy (Pyricularia oryzae; 1 ppm, 5 days incubation): 85%
- Efficacy (Pyricularia oryzae; 4 ppm, 5 days incubation): 94%
- Efficacy (Pyricularia oryzae; 20 ppm, 5 days incubation): 100%
- Efficacy (Botrytis cinerea; [3]): 92%

SMILES: C[Si]1(c2c(F)cccc2Oc2cnc3ccccc3c2)CCC1 [I.008, 3-[3-fluoro-2-(1-methylsiletan-1-yl)phenoxy]quinoline]
- chromatographic logP [1, 4]: 5.39
- inhibition at 20 ppm (Pyricularia oryzae): 90 to 100%

SMILES: Cc1cc(Oc2cccc(F)c2[Si](C)(C)C)c2ccc(F)c(F)c2n1 [CMP3, 7,8-difluoro-4-[3-fluoro-2-(trimethylsilyl)phenoxy]-2-methylquinoline, reference compound]
- Efficacy (Pyricularia oryzae; 1 ppm, 5 days incubation): 0%
- efficacy (inhibition of fungal growth) (Pyricularia oryzae; [5]): much lower efficacy
- Efficacy (Pyricularia oryzae; 4 ppm, 5 days incubation): 25%
- Efficacy (Pyricularia oryzae; 20 ppm, 5 days incubation): 96%
- Efficacy (Botrytis cinerea; [6]): no efficacy
- Efficacy (Botrytis cinerea; [3]): 0%

SMILES: Cc1nc2ccccc2cc1Oc1ccccc1[Si](C)(C)C [I.047, 2-methyl-3-[2-(trimethylsilyl)phenoxy]quinoline]
- chromatographic logP [1, 4]: 4.85
- inhibition at 20 ppm (Pyricularia oryzae): 90 to 100%

SMILES: Cc1nc2c(F)c(F)ccc2cc1Oc1ccccc1C[Si](C)(C)C [CMP1, 7,8-difluoro-2-methyl-3-{2-[(trimethylsilyl)methyl]phenoxy}quinoline, reference compound]
- Efficacy (Pyricularia oryzae; [7]): 1%
- Efficacy (Pyricularia oryzae; [8]): 56%
- efficacy (inhibition of fungal growth) (Pyricularia oryzae; dose of 0.25 ppm or 0.06 ppm): much lower efficacy
- Efficacy (Septoria tritici; 500 ppm of active ingredient, evaluated 24 days after inoculation): no protection
- Efficacy (Septoria tritici; Table D, dose 500 ppm): 0%

SMILES: Cc1nc2c(F)c(F)ccc2cc1Oc1ccccc1[Si](C)(C)C [I.024]
- logP [1, 4]: 6.01
- Efficacy (Pyricularia oryzae; [7]): 89%
- Efficacy (Pyricularia oryzae; [8]): 96%
- efficacy (inhibition of fungal growth) (Pyricularia oryzae; dose of 0.25 ppm or 0.06 ppm): at least 80%
- Efficacy (Septoria tritici; Table D, dose 500 ppm): 81%

SMILES: C[Si](C)(C)c1ccccc1Oc1cnc2ccccc2c1 [I.001, 3-[2-(trimethylsilyl)phenoxy]quinoline]
- chromatographic logP [1, 4]: 5.17
- inhibition at 20 ppm (Pyricularia oryzae): 90 to 100%

SMILES: Cc1nc2c(F)c(F)ccc2cc1Oc1cccc(F)c1[Si](C)(C)F [I.032, 7,8-difluoro-3-{3-fluoro-2-[fluoro(dimethyl)silyl]phenoxy}-2-methylquinoline]
- chromatographic logP [1, 4]: 4.75
- inhibition at 20 ppm (Pyricularia oryzae): 90 to 100%

SMILES: C[SiH](c1ccccc1)c1c(F)cccc1Oc1cc2ccccc2nc1Cl (stereo not drawn) [I.062, 2-chloro-3-{3-fluoro-2-[methyl(phenyl)silyl]phenoxy}quinoline]
- chromatographic logP [1, 4]: 5.78
- inhibition at 20 ppm (Pyricularia oryzae): 90 to 100%

SMILES: C[Si](C)(C)c1cc(F)ccc1Oc1ccnc2c(Cl)cccc12 [CMP2, 8-chloro-4-[4-fluoro-2-(trimethylsilyl)phenoxy]quinoline, reference compound]
- Efficacy (Pyricularia oryzae; 1 ppm, 5 days incubation): 0%
- efficacy (inhibition of fungal growth) (Pyricularia oryzae; [5]): much lower efficacy
- Efficacy (Pyricularia oryzae; 4 ppm, 5 days incubation): 46%
- Efficacy (Pyricularia oryzae; 20 ppm, 5 days incubation): 93%

SMILES: Cc1nc2c(F)c(F)ccc2cc1Oc1ccccc1[Si](C)(C)O [I.026, {2-[(7,8-difluoro-2-methylquinolin-3-yl)oxy]phenyl}(dimethyl)silanol]
- chromatographic logP [1, 4]: 3.51
- inhibition at 20 ppm (Pyricularia oryzae): 90 to 100%

SMILES: C[Si](C)(C)c1c(F)cccc1Oc1ccnc2cccnc12 [CMP4, 4-[3-fluoro-2-(trimethylsilyl)-phenoxy]-1,5-naphthyridine, reference compound]
- Efficacy (Pyricularia oryzae; 1 ppm, 5 days incubation): 0%
- efficacy (inhibition of fungal growth) (Pyricularia oryzae; [5]): much lower efficacy
- Efficacy (Pyricularia oryzae; 4 ppm, 5 days incubation): 11%
- Efficacy (Pyricularia oryzae; 20 ppm, 5 days incubation): 44%
- Efficacy (Botrytis cinerea; [6]): no efficacy
- Efficacy (Botrytis cinerea; [3]): 0%

SMILES: C[Si](C)(C)c1cc(F)ccc1Oc1cnc2c(Cl)cccc2c1 [I.019]
- logP [1, 4]: 5.62
- Efficacy (Pyricularia oryzae; 1 ppm, 5 days incubation): 45%
- Efficacy (Pyricularia oryzae; 4 ppm, 5 days incubation): 98%
- Efficacy (Pyricularia oryzae; 20 ppm, 5 days incubation): 97%

SMILES: C[Si](C)(C)c1c(F)cccc1Oc1cnc2cccnc2c1 [I.116]
- logP [1, 4]: 4.15
- Efficacy (Pyricularia oryzae; 1 ppm, 5 days incubation): 90%
- Efficacy (Pyricularia oryzae; 4 ppm, 5 days incubation): 100%
- Efficacy (Pyricularia oryzae; 20 ppm, 5 days incubation): 100%
- Efficacy (Botrytis cinerea; [3]): 73%

SMILES: C[Si]1(C)OCc2cccc(Nc3cnc4ccccc4c3)c21 [I.010, N-(1,1-dimethyl-1,3-dihydro-2,1-benzoxasilol-7-yl)quinolin-3-amine]
- chromatographic logP [1, 2]: 3.15
- inhibition at 20 ppm (Pyricularia oryzae): 80 to 89%

SMILES: Cc1nc2c(F)c(F)ccc2cc1Oc1ccccc1[N+](=O)[O-] [Va.04, 7,8-difluoro-2-methyl-3-(2-nitrophenoxy)quinoline]
- chromatographic logP [1, 4]: 3.37
- chromatographic logP ([1]; logP Method A): 3.42

SMILES: O=S(=O)(c1cccc(F)c1)c1cnc2ccccc2c1 [VII.05A]
- chromatographic logP ([1]; logP Method A): 2.68

SMILES: Cc1nc2ccccc2cc1Oc1cccc(CCO)c1Br [II.03A]
- chromatographic logP ([1]; logP Method A): 2.14

SMILES: Cc1nc2c(F)c(F)ccc2cc1Oc1c(F)cccc1Br [IIa.09, 3-(2-bromo-6-fluorophenoxy)-7,8-difluoro-2-methylquinoline]
- chromatographic logP [1, 4]: 4.25

SMILES: Cc1nc2ccccc2cc1Oc1ccc(-c2ccsc2)cc1[Si](C)(C)C [I.138]
- logP [1, 4]: 5.85

SMILES: Cc1nc2ccccc2cc1Oc1ccc(-c2ccccc2)cc1[Si](C)(C)C [I.135]
- logP [1, 4]: 6.27

SMILES: CC(C)(C)[Si](C)(C)c1ccccc1Oc1cnc2ccccc2n1 [I.072]
- logP [1, 4]: 6.30

SMILES: Cc1cccc([Si](C)(C)O)c1Oc1nc2ccc(F)c(F)c2nc1C [I.104]
- logP [1, 4]: 3.73

SMILES: O=[N+]([O-])c1c(F)cccc1Oc1cnc2ccccc2c1 [Va.05]
- logP ([1]; logP Method A): 3.13

SMILES: CC[Si](C)(C)c1c(C#N)cccc1Oc1cc2ccc(F)c(F)c2nc1C [I.039]
- logP [1, 4]: 5.22

SMILES: Cc1nc2c(F)c(F)ccc2cc1Oc1cc(F)ccc1[Si](C)(C)O [I.035]
- logP [1, 4]: 3.55

SMILES: Cc1c(Oc2cccc(F)c2[Si](C)(C)C)cnc2ccccc12 [I.042]
- logP [1, 4]: 5.62

SMILES: Cc1nc2c(F)c(F)ccc2cc1Oc1ccccc1N [IVa.05, 2-[(7,8-difluoro-2-methylquinolin-3-yl)oxy]aniline]
- chromatographic logP [1, 4]: 2.99
- chromatographic logP ([1]; logP Method A): 2.99

Reference: patent publication US10683311B2 (priority 2015, dated 2020)
